# Reference: ChEMBL document CHEMBL1212733, “Chemical genomics in Escherichia coli identifies an inhibitor of bacterial lipoprotein targeting” (Nat Chem Biol, 2009)
# Calls of active or inactive are those of the source. No cut-off for these calls is given here.
# Experiments:
# [1] = biological target: T1, Outer membrane protein TolC (Escherichia coli (strain K12)) (UniProt P02930); experiment: Inhibition of IPTG-stimulated Escherichia coli K-12 tolC at 8 fold MIC by microarray analysis
# T1 sequence (whole entry): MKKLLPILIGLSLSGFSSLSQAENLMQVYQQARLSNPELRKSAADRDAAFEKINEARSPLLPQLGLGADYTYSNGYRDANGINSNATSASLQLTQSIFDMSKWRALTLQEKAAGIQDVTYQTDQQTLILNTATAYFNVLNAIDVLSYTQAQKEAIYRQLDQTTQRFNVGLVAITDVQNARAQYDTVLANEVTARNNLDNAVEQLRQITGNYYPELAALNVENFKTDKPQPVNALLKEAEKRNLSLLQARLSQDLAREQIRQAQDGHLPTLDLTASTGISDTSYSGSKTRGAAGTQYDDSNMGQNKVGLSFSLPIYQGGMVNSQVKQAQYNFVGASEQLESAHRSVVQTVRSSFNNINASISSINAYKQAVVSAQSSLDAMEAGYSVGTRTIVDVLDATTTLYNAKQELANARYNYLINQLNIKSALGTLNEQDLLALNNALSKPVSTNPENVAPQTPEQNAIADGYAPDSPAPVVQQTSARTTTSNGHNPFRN
# [2] = biological target: T1, Outer membrane protein TolC (Escherichia coli (strain K12)); experiment: Inhibition of IPTG-stimulated Escherichia coli K-12 tolC at 16 fold MIC by microarray analysis
# [3] = biological target: T2, Outer-membrane lipoprotein carrier protein (Escherichia coli (strain K12)) (UniProt P61316); experiment: Inhibition of IPTG-stimulated Escherichia coli K-12 lolA at 8 fold MIC by microarray analysis
# T2 sequence (whole entry): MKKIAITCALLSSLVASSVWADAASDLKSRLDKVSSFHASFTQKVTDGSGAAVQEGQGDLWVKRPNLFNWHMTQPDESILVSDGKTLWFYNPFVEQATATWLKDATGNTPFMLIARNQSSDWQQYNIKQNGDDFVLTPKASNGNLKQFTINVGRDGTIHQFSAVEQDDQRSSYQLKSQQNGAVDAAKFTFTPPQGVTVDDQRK
# [4] = biological target: T2, Outer-membrane lipoprotein carrier protein (Escherichia coli (strain K12)); experiment: Inhibition of IPTG-stimulated Escherichia coli K-12 lolA at 16 fold MIC after 16 hrs by spectrophotometry
# [5] = test system: Stenotrophomonas maltophilia; experiment: Antibacterial activity against Stenotrophomonas maltophilia B22020 after 16 hrs by microbroth dilution method; type: functional; details: B22020, 16 h
# [6] = test system: Pseudomonas aeruginosa; experiment: Antibacterial activity against multidrug-resistant Pseudomonas aeruginosa PS37834 after 16 hrs by microbroth dilution method; type: functional; details: PS37834, 16 h
# [7] = test system: Escherichia coli; experiment: Induction of Lpp accumulation in inner membrane of Escherichia coli K-12 MG1655 at 320 ug/ml after 20 mins by SDS-PAGE; type: functional, organism-based
# [8] = biological target: T1, Outer membrane protein TolC (Escherichia coli (strain K12)); experiment: Inhibition of IPTG-stimulated Escherichia coli K-12 tolC at 4 fold MIC by microarray analysis
# [9] = test system: Candida albicans; experiment: Antifungal activity against Candida albicans after 16 hrs by microbroth dilution method; type: functional
# [10] = biological target: T2, Outer-membrane lipoprotein carrier protein (Escherichia coli (strain K12)); experiment: Inhibition of IPTG-stimulated Escherichia coli K-12 lolA at 16 fold MIC by microarray analysis
# [11] = test system: Pseudomonas aeruginosa; experiment: Antibacterial activity against multidrug-resistant Pseudomonas aeruginosa PAE302 after 16 hrs by microbroth dilution method; type: functional; details: PAE302, 16 h
# [12] = test system: Pseudomonas aeruginosa; experiment: Antibacterial activity against multidrug-resistant Pseudomonas aeruginosa PS35823 after 16 hrs by microbroth dilution method; type: functional; details: PS35823, 16 h
# [13] = test system: Staphylococcus aureus; experiment: Antibacterial activity against Staphylococcus aureus after 16 hrs by microbroth dilution method; type: functional
# [14] = test system: Pseudomonas aeruginosa; experiment: Antibacterial activity against multidrug-resistant Pseudomonas aeruginosa PS232 after 16 hrs by microbroth dilution method; type: functional; details: PS232, 16 h
# [15] = test system: Burkholderia cepacia; experiment: Antibacterial activity against Burkholderia cepacia B154408 after 16 hrs by microbroth dilution method; type: functional; details: B154408, 16 h
# [16] = test system: Escherichia coli; experiment: Induction of Lpp accumulation in inner membrane of Escherichia coli K-12 MG1655 at 320 ug/ml after 20 mins by autoradiography; type: functional, organism-based
# [17] = test system: Pseudomonas aeruginosa; experiment: Antibacterial activity against multidrug-resistant Pseudomonas aeruginosa PS216 after 16 hrs by microbroth dilution method; type: functional; details: PS216, 16 h
# [18] = test system: Pseudomonas aeruginosa; experiment: Antibacterial activity against multidrug-resistant Pseudomonas aeruginosa PS301 after 16 hrs by microbroth dilution method; type: functional; details: PS301, 16 h
# [19] = test system: Pseudomonas aeruginosa; experiment: Antibacterial activity against multidrug-resistant Pseudomonas aeruginosa PAE287 after 16 hrs by microbroth dilution method; type: functional; details: PAE287, 16 h
# [20] = test system: Pseudomonas aeruginosa; experiment: Antibacterial activity against multidrug-resistant Pseudomonas aeruginosa PS364 after 16 hrs by microbroth dilution method; type: functional; details: PS364, 16 h
# [21] = test system: Pseudomonas aeruginosa; experiment: Antibacterial activity against multidrug-resistant Pseudomonas aeruginosa PS36769 after 16 hrs by microbroth dilution method; type: functional; details: PS36769, 16 h
# [22] = biological target: Multidrug efflux pump subunit AcrB (Escherichia coli (strain K12)) (UniProt P31224); experiment: Binding affinity to Escherichia coli K-12 MC1061 acrB assessed as decrease in susceptibility to compound efflux at 2 to 128 ug/ml after 16 hrs by plate reader assay
# Chain of Multidrug efflux pump subunit AcrB (Escherichia coli (strain K12)) (P31224 whole entry): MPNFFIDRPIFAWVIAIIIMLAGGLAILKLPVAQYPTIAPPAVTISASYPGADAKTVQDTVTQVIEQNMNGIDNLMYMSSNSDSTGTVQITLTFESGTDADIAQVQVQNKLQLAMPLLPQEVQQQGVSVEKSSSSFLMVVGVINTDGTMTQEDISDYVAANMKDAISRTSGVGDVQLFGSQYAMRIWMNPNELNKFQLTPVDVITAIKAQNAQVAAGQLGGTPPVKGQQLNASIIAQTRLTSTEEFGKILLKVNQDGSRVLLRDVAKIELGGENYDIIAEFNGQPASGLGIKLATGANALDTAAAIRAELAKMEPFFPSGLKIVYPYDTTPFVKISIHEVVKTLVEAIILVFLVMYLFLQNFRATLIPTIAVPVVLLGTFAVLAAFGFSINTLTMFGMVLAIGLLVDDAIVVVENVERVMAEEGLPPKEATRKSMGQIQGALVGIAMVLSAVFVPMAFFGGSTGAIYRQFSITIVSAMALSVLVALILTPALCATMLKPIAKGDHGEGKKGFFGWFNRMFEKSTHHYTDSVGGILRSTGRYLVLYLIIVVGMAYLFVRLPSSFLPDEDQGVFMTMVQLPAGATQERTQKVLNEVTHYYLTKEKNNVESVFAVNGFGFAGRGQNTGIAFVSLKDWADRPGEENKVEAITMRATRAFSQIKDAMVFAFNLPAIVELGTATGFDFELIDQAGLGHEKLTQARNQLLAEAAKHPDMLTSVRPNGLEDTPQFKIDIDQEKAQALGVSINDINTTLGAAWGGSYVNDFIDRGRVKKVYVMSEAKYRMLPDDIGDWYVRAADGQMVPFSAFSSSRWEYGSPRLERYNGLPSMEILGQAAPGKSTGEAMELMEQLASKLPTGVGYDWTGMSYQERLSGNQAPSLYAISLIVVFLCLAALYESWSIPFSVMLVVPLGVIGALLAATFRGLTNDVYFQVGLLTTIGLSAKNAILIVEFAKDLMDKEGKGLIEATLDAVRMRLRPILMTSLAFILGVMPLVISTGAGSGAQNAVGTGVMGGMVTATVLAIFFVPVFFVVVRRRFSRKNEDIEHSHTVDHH
# [23] = test system: Pseudomonas aeruginosa; experiment: Antibacterial activity against multidrug-resistant Pseudomonas aeruginosa PS37619 after 16 hrs by microbroth dilution method; type: functional; details: PS37619, 16 h
# [24] = test system: Micrococcus luteus; experiment: Antibacterial activity against Micrococcus luteus after 16 hrs by microbroth dilution method; type: functional
# [25] = biological target: Outer-membrane lipoprotein carrier protein (Escherichia coli (strain K12), UniProt P61316); experiment: Binding affinity to Escherichia coli K-12 lolA expressed in Escherichia coli BL21(AI) by NMR spectrometry
# [26] = test system: HeLa; experiment: Cytotoxicity against human HeLa cells after 24 hrs by Cell Titre-Glo luminescent assay; type: cell-based
# [27] = test system: Pseudomonas aeruginosa; experiment: Antibacterial activity against multidrug-resistant Pseudomonas aeruginosa PAE252 after 16 hrs by microbroth dilution method; type: functional; details: PAE252, 16 h
# [28] = test system: Pseudomonas aeruginosa; experiment: Antibacterial activity against multidrug-resistant Pseudomonas aeruginosa PS8539204 after 16 hrs by microbroth dilution method; type: functional; details: PS8539204, 16 h
# [29] = test system: Pseudomonas aeruginosa; experiment: Antibacterial activity against multidrug-resistant Pseudomonas aeruginosa PAE231 after 16 hrs by microbroth dilution method; type: functional; details: PAE231, 16 h
# [30] = test system: Escherichia coli; experiment: Antibacterial activity against Escherichia coli K-12 harboring lolA gene after 16 hrs by serial dilution method; type: functional; details: K-12, 16 h
# [31] = test system: Pseudomonas aeruginosa; experiment: Antibacterial activity against multidrug-resistant Pseudomonas aeruginosa PS225 after 16 hrs by microbroth dilution method; type: functional; details: PS225, 16 h
# [32] = test system: Bacillus subtilis; experiment: Antibacterial activity against Bacillus subtilis 168 after 16 hrs by microbroth dilution method; type: functional; details: subsp. subtilis str. 168, 16 h
# [33] = test system: Pseudomonas aeruginosa; experiment: Antibacterial activity against Pseudomonas aeruginosa PAO1 after 16 hrs by microbroth dilution method; type: functional; details: PAO1, 16 h
# [34] = test system: Escherichia coli; experiment: Antibacterial activity against Escherichia coli K-12 MG1655 after 16 hrs by microbroth dilution method; type: functional; details: K-12 MG1655, 16 h
# [35] = test system: Escherichia coli; experiment: Antibacterial activity against Escherichia coli ATCC 25922 after 16 hrs by microbroth dilution method; type: functional; details: ATCC 25922, 16 h
# [36] = biological target: T2, Outer-membrane lipoprotein carrier protein (Escherichia coli (strain K12)); experiment: Inhibition of IPTG-stimulated Escherichia coli K-12 lolA at 4 fold MIC by microarray analysis
# [37] = test system: Pseudomonas aeruginosa; experiment: Antibacterial activity against multidrug-resistant Pseudomonas aeruginosa PAE349 after 16 hrs by microbroth dilution method; type: functional; details: PAE349, 16 h
# [38] = test system: Pseudomonas aeruginosa; experiment: Antibacterial activity against multidrug-resistant Pseudomonas aeruginosa PS8534624 after 16 hrs by microbroth dilution method; type: functional; details: PS8534624, 16 h
smiles,measurement,setting,value
COc1ccc(CCN2CN=C(SCc3ccc(Cl)cc3)NC2)cc1OC,inhibition,[1],Active
same,inhibition,[2],Active
same,inhibition,[3],Active
same,inhibition,[4],inactive
same,MIC,[5],8 µg/mL
same,MIC,[6],16 µg/mL
same,Activity,[7],Active
same,inhibition,[8],Active
same,MIC,[9],> 256 µg/mL
same,inhibition,[10],Active
same,MIC,[11],4 µg/mL
same,MIC,[12],4 µg/mL
same,MIC,[13],> 256 µg/mL
same,MIC,[14],4 µg/mL
same,MIC,[15],128 µg/mL
same,Activity,[16],Active
same,MIC,[17],16 µg/mL
same,MIC,[18],256 µg/mL
same,MIC,[19],4 µg/mL
same,MIC,[20],128 µg/mL
same,MIC,[21],4 µg/mL
same,Activity,[22],Active
same,MIC,[23],128 µg/mL
same,MIC,[24],> 256 µg/mL
same,Kd,[25],7.5 µM
same,Activity,[26],> 256 µg/mL
same,MIC,[27],2 µg/mL
same,MIC,[28],128 µg/mL
same,MIC,[29],16 µg/mL
same,MIC,[30],8 µg/mL
same,MIC,[31],1 µg/mL
same,MIC,[32],> 256 µg/mL
same,MIC,[33],4 µg/mL
same,MIC,[34],16 µg/mL
same,MIC,[35],16 µg/mL
same,inhibition,[36],Active
same,MIC,[37],4 µg/mL
same,MIC,[38],2 µg/mL
